Source: patent US20090069181A1, “Product and Process for Treating Water Bodies, Sediments and Soils” (SOLVAY SA, priority 2006, published 2009)

Tested on: blue green algae
Experiment: Pond treatment, algae control in a four-foot deep pond (Example 1)
Assay type: in vivo
Conditions: treated every two weeks for approximately 6 years during the warmer season
Excerpt: The solid form of this invention containing approximately 70% calcium peroxide was applied to the pond by spreading it over the surface at a rate of 10 lbs per acre foot.

In the case of `O=S(=O)([O-])[O-].[Cu+2]` [copper sulfate], the control of algae was “control of algae was still difficult”.
